Read-outs that look alike come from different tables or passages of the source. Ends that are not written are not given here.
Key:
[1] = system: HIV-1 pseudotyped with V549E mutant Env (Res1, V38E) from strain HXB2; format: cell-based
Description: (§1) All viral infectivity and cell-cell fusion experiments were performed as described in Chan, D., et. al., 1998, Proc. Natl. Acad. Sci. U.S.A. 95, 15613-15617. Briefly, the potency of C-peptides in inhibiting viral infection was determined using recombinant luciferase-expressing HIV-1 as described by Malashkevich, V. N., et. al., 1998, Proc. Natl. Acad. Sci. USA 95, 9134-9139. To produce virus, 293T cells were co-transfected with the envelope-deficient HIV-1 genome NL43LucR-E-(21) and the HXB2 gp160 expression vector pCMVHXB2 gp160 using calcium phosphate. Viral supernatants were cleared of cellular debris by low-speed centrifugation and used to infect HOS-CD4/Fusin cells (N. Landau, National Institutes of Health AIDS Reagent Program) in the presence of varying concentrations of C-peptide, ranging from 0 to 200 nM. Cells were harvested 48 hr postinfection, and luciferase activity was measured in a Wallac (Gaithersburg, Md.) AutoLumat LB953 luminometer. The IC50 is the peptide concentration that results in a 50% decrease in activity relative to control samples lacking peptide. For each peptide, data from three experiments were fit to a Langmuir equation [y=k/(1+([peptide]/IC50)], where y=luciferase activity and k is a scaling constant] to obtain the IC50 values.
(§2) HOS-CD4-Les cells were infected with HIV-1 pseudotyped with Env from HXB2 HIV-1 strain of either the wild type sequence or one of three variant sequences that confer resistance to C-peptides. The sequences of Res1 and Res2 Env, defined in FIG. 1, contain mutations in the gp41 HR1 region that decrease C-peptide binding affinity. The sequence of Res3 contains a mutation in the gp41 HR2 region (N637K) that confers partial resistance by enhancing the rate of viral membrane fusion. The IC50 (±SEM) values represent the mean of 2 or 3 independent titrations of the indicated C-peptide.
(§3) The C37 variants generated were able to overcome resistance conferred by the HR1 region mutations. In FIG. 2, viruses pseudotyped with either wild type Env (closed squares) or V549E mutant Env (Res1, closed circles) from strain HXB2 were utilized to infect HOS-CD4-Les target cells. Infection took place in the presence and absence of C37 (FIG. 2A), C37-KYI (FIG. 2B) or (C37-GC)2 (FIG. 2C) and quantified by the expression of a luciferase-reporter construct. The IC50 values are indicated on the graph. A mutant variant of C37 with two substitutions (N637K and T6391), hereafter denoted C37-KYI, binds to a structural mimic of the gp41 HR1 region, the N-peptide known as N36 with an estimated equilibrium dissociation constant (Kd) of 40 fM, more than 20-fold lower than the Kd for wild type C37 (FIG. 2). The Hr1 and HR2 regions of three gp41 form an intermediate structure called the trimer-of-hairpins which is necessary for the viral entry process and membrane fusion with the host membrane.

[2] = system: HIV-1 pseudotyped with wild type Env from strain HXB2 (HOS-CD4 target cells); format: cell-based
Description: as §1, §2, §3

HIV-1 Res 2 (L33S) = format: cell-based; settings: Table 2
Description: as §1, §2

[3] = system: HIV-1 pseudotyped with Res 3 Env (HR2 mutant, N637K), HXB2; format: cell-based
Description: as §1, §2

HIV-1 Res 4 (SDTV) = format: cell-based; settings: Table 2
[4] = system: HIV-1 with resistance mutations at the gp41 HR1 region; experiment: Viral infectivity, C-peptide-resistant HIV-1 (HR1 region resistance mutations, text statements); format: cell-based
Description: as §1, with “values. […]” for “values.”

[5] = system: HIV-1 with resistance mutations at the gp41 HR1 region; settings: read-out: IC50 after emergence of resistance mutations; cited from earlier work
HIV entry = settings: read-out: IC50 against HIV entry; cited from earlier work
[6] = Table 2, read-out: IC50, WT HXB2
[7] = Table 1, HXB2 wild type Env, HOS-CD4-Les cells, mean of 2 or 3 titrations, read-out: IC50 (±SEM), WT Env

Compound: CC[C@H](C)[C@H](NC(=O)[C@H](CC(C)C)NC(=O)[C@H](CO)NC(=O)[C@H](Cc1c[nH]cn1)NC(=O)[C@@H](NC(=O)[C@H](CC(C)C)NC(=O)[C@H](CO)NC(=O)[C@@H](NC(=O)[C@H](Cc1ccc(O)cc1)NC(=O)[C@H](CC(N)=O)NC(=O)[C@H](CC(N)=O)NC(=O)[C@@H](NC(=O)[C@H](CCC(=O)O)NC(=O)[C@H](CCCNC(=N)N)NC(=O)[C@H](CC(=O)O)NC(=O)[C@H](Cc1c[nH]c2ccccc12)NC(=O)[C@H](CCC(=O)O)NC(=O)[C@H](CCSC)NC(=O)[C@H](Cc1c[nH]c2ccccc12)NC(=O)[C@@H](NC(=O)[C@@H](NC(=O)[C@H](Cc1c[nH]cn1)NC(=O)CNC(=O)CN)[C@@H](C)O)[C@@H](C)O)[C@@H](C)CC)[C@@H](C)O)[C@@H](C)CC)C(=O)N[C@@H](CCC(=O)O)C(=O)N[C@@H](CCC(=O)O)C(=O)N[C@@H](CO)C(=O)N[C@@H](CCC(N)=O)C(=O)N[C@@H](CC(N)=O)C(=O)N[C@@H](CCC(N)=O)C(=O)N[C@@H](CCC(N)=O)C(=O)N[C@@H](CCC(=O)O)C(=O)N[C@@H](CCCCN)C(=O)N[C@@H](CC(N)=O)C(=O)N[C@@H](CCC(=O)O)C(=O)N[C@@H](CCC(N)=O)C(=O)N[C@@H](CCC(=O)O)C(=O)N[C@@H](CC(C)C)C(=O)N[C@@H](CC(C)C)C(=O)NCC(=O)NCC(=O)N[C@@H](Cc1c[nH]cn1)C(=O)N[C@@H](Cc1c[nH]cn1)C(=O)N[C@@H](Cc1c[nH]cn1)C(=O)N[C@@H](Cc1c[nH]cn1)C(=O)N[C@@H](Cc1c[nH]cn1)C(=O)N[C@@H](Cc1c[nH]cn1)C(=O)O [C37]
- IC50 ([1]; Table 2, read-out: IC50, Res 1 (V38E)): 126 ± 24 nM
- IC50 [2, 6]: 1.3 ± 0.2 nM
- IC50 ([2]; read-out: IC50 against viruses pseudotyped with EnvHXB2): ~1 nM
- IC50 (HIV-1 Res 2 (L33S)): 1.3 ± 0.4 nM
- IC50 ([3]; Table 2, read-out: IC50, Res 3 (N123K/L204I)): 7.1 ± 3.6 nM
- IC50 (HIV-1 Res 4 (SDTV)): 53 ± 15 nM
- fold reduction in inhibitory potency by HR1 region resistance mutations [4]: 100 fold

Compound: (C37-GC)2: Disulfide-crosslinked dimeric C37 variant containing a Cys residue at the peptide's C-terminus (added Gly-Cys) (HTTWMEWDREINNYTSLIHSLIEESQNQQEKNEQELLGC; also: disulfide-crosslinked homodimer via C-terminal Cys)
- IC50 ([1]; Table 1, HOS-CD4-Les cells, read-out: IC50 (±SEM), Res 1 Env (HR1 mutant)): 0.3 nM
- IC50 [2, 7]: 0.3 nM
- inhibition of wild type virus compared to monomeric C37 ([2]; in words): not significantly better

Compound: enfuvirtide
- IC50 [2, 7]: 1.7 ± 0.4 nM
- IC50 [2, 6]: 2.3 ± 1 nM
- IC50 ([3]; Table 1, HOS-CD4-Les cells, read-out: IC50 (±SEM), Res 3 Env (HR2 mutant)): 6.4 ± 1.5 nM
- IC50 (HIV-1 Res 4 (SDTV)): 900 ± 150 nM
- IC50 [5]: > 900 nM
- IC50 (HIV entry): ~1 nM
